These results are taken from paper PMC5218480 (PLoS ONE, 2017).

This experiment has as its system MV-4-11 cells. Kind of experiment: Gene expression microarray analysis (Affymetrix PrimeView) and GSEA. Further details: RFU PODN (11730768_x_at) / Fold change /veh PODN (11730768_x_at) / RFU LINC00158 (11744669_a_at) / Fold change /veh LINC00158 (11744669_a_at) / RFU DUSP10 (11751237_a_at) / Fold change /veh DUSP10 (11751237_a_at) / RFU ID3 (11757404_x_at) / Fold change /veh ID3 (11757404_x_at) / RFU PLEKHG5 (11737974_s_at) / Fold change /veh PLEKHG5 (11737974_s_at) / RFU LRRC4B (11730491_at) / Fold change /veh LRRC4B (11730491_at) / RFU GIMAP4 (11747438_a_at) / Fold change /veh GIMAP4 (11747438_a_at) / RFU KRT8 (11758183_x_at) / Fold change /veh KRT8 (11758183_x_at) / RFU CNN1 (11734310_a_at) / Fold change /veh CNN1 (11734310_a_at) / RFU VPS37D (11726825_at) / Fold change /veh VPS37D (11726825_at) / RFU C10orf10 (11716522_x_at) / Fold change /veh C10orf10 (11716522_x_at) / RFU KIR2DL2 /// KIR2DL4 /// KIR2DL5A /// KIR2DL5B /// KIR2DS1 /// KIR2DS2 /// KIR2DS3 /// KIR2DS4 /// KIR3DL3 /// KIR3DL3 /// KIR3DS1 (11738374_at) / Fold change /veh KIR2DL2 /// KIR2DL4 /// KIR2DL5A /// KIR2DL5B /// KIR2DS1 /// KIR2DS2 /// KIR2DS3 /// KIR2DS4 /// KIR3DL3 /// KIR3DL3 /// KIR3DS1 (11738374_at) / RFU C1QL1 (11718748_at) / Fold change /veh C1QL1 (11718748_at) / RFU TMPRSS4 (11747572_a_at) / Fold change /veh TMPRSS4 (11747572_a_at) / RFU HAMP (11756126_x_at) / Fold change /veh HAMP (11756126_x_at) / RFU RNFT2 (11725882_a_at) / Fold change /veh RNFT2 (11725882_a_at) / RFU NR4A2 (11747474_a_at) / Fold change /veh NR4A2 (11747474_a_at) / RFU ABCC12 (11746883_a_at) / Fold change /veh ABCC12 (11746883_a_at) / RFU TMEM136 (11760407_x_at) / Fold change /veh TMEM136 (11760407_x_at) / RFU CLDN22 /// WWC2 (11732394_at) / Fold change /veh CLDN22 /// WWC2 (11732394_at) / RFU HLA-DPB1 (11760878_x_at) / Fold change /veh HLA-DPB1 (11760878_x_at) / RFU SPINT1 (11716480_a_at) / Fold change /veh SPINT1 (11716480_a_at) / RFU GAP43 (11754022_s_at) / Fold change /veh GAP43 (11754022_s_at) / RFU A4GNT (11735810_at) / Fold change /veh A4GNT (11735810_at) / RFU PRB3 (11715151_x_at) / Fold change /veh PRB3 (11715151_x_at) / RFU TUBB4B (11761932_at) / Fold change /veh TUBB4B (11761932_at) / RFU CAPN14 (11732068_a_at) / Fold change /veh CAPN14 (11732068_a_at) / RFU TMCC2 (11721928_a_at) / Fold change /veh TMCC2 (11721928_a_at) / RFU IRGQ (11745062_a_at) / Fold change /veh IRGQ (11745062_a_at) / RFU FAM174B (11720279_a_at) / Fold change /veh FAM174B (11720279_a_at) / RFU TMPRSS4 (11748680_a_at) / Fold change /veh TMPRSS4 (11748680_a_at) / RFU FAM212B (11763350_a_at) / Fold change /veh FAM212B (11763350_a_at) / RFU PLEKHG5 (11743358_a_at) / Fold change /veh PLEKHG5 (11743358_a_at) / RFU ZSCAN30 (11745921_a_at) / Fold change /veh ZSCAN30 (11745921_a_at) / RFU CMKLR1 (11741424_a_at) / Fold change /veh CMKLR1 (11741424_a_at) / RFU LOC101060620 /// MAPK8IP1 (11723275_at) / Fold change /veh LOC101060620 /// MAPK8IP1 (11723275_at) / RFU SPTSSB (11747773_x_at) / Fold change /veh SPTSSB (11747773_x_at) / RFU PRSS12 (11739890_at) / Fold change /veh PRSS12 (11739890_at) / RFU BIN1 (11741810_x_at) / Fold change /veh BIN1 (11741810_x_at) / RFU WNT11 (11732464_a_at) / Fold change /veh WNT11 (11732464_a_at) / RFU C10orf10 (11716521_a_at) / Fold change /veh C10orf10 (11716521_a_at) / RFU C5orf56 (11738089_at) / Fold change /veh C5orf56 (11738089_at) / RFU CYB561 (11721691_x_at) / Fold change /veh CYB561 (11721691_x_at) / RFU ANKRD19P (11752326_a_at) / Fold change /veh ANKRD19P (11752326_a_at) / RFU OR2T12 /// OR2T33 /// OR2T8 (11738714_s_at) / Fold change /veh OR2T12 /// OR2T33 /// OR2T8 (11738714_s_at) / RFU VCAN (11748164_a_at) / Fold change /veh VCAN (11748164_a_at) / RFU JSRP1 (11732532_at) / Fold change /veh JSRP1 (11732532_at) / RFU KRTAP10-11 (11738290_x_at) / Fold change /veh KRTAP10-11 (11738290_x_at) / RFU MYO3A (11730013_a_at) / Fold change /veh MYO3A (11730013_a_at) / RFU EBF3 (11725865_a_at) / Fold change /veh EBF3 (11725865_a_at) / RFU CAMK2N1 (11719241_x_at) / Fold change /veh CAMK2N1 (11719241_x_at) / RFU C5orf56 (11738088_a_at) / Fold change /veh C5orf56 (11738088_a_at) / RFU OLFML3 (11715873_a_at) / Fold change /veh OLFML3 (11715873_a_at) / RFU LOC100653217 /// NTM (11731650_a_at) / Fold change /veh LOC100653217 /// NTM (11731650_a_at) / RFU MAPK11 (11762145_a_at) / Fold change /veh MAPK11 (11762145_a_at) / RFU FIZ1 (11724087_x_at) / Fold change /veh FIZ1 (11724087_x_at) / RFU OASL (11726364_x_at) / Fold change /veh OASL (11726364_x_at) / RFU SOX15 (11748057_x_at) / Fold change /veh SOX15 (11748057_x_at) / RFU CD79A (11719716_a_at) / Fold change /veh CD79A (11719716_a_at) / RFU HIST1H1D (11736915_at) / Fold change /veh HIST1H1D (11736915_at) / RFU CASKIN2 (11723855_a_at) / Fold change /veh CASKIN2 (11723855_a_at) / RFU LOC730098 (11760151_x_at) / Fold change /veh LOC730098 (11760151_x_at) / RFU OR4N2 (11742367_at) / Fold change /veh OR4N2 (11742367_at) / RFU PRRT2 (11749266_a_at) / Fold change /veh PRRT2 (11749266_a_at) / RFU SNX32 (11753110_a_at) / Fold change /veh SNX32 (11753110_a_at) / RFU CDHR5 (11726645_a_at) / Fold change /veh CDHR5 (11726645_a_at) / RFU RCAN1 (11760418_a_at) / Fold change /veh RCAN1 (11760418_a_at) / RFU FAM167A (11723789_a_at) / Fold change /veh FAM167A (11723789_a_at) / RFU FAM26E (11764081_at) / Fold change /veh FAM26E (11764081_at) / RFU ISYNA1 (11749810_s_at) / Fold change /veh ISYNA1 (11749810_s_at) / RFU ACY1 (11761880_at) / Fold change /veh ACY1 (11761880_at) / RFU 11764098_at / Fold change /veh 11764098_at / RFU SAMD14 (11745864_x_at) / Fold change /veh SAMD14 (11745864_x_at) / RFU NPB (11741838_a_at) / Fold change /veh NPB (11741838_a_at) / RFU TMPRSS6 (11731388_a_at) / Fold change /veh TMPRSS6 (11731388_a_at) / RFU KRTAP10-2 (11738614_at) / Fold change /veh KRTAP10-2 (11738614_at) / RFU ARHGAP8 /// PRR5-ARHGAP8 (11727945_x_at) / Fold change /veh ARHGAP8 /// PRR5-ARHGAP8 (11727945_x_at) / RFU KRTAP5-7 /// NADSYN1 (11734609_at) / Fold change /veh KRTAP5-7 /// NADSYN1 (11734609_at) / RFU RASL12 (11751679_a_at) / Fold change /veh RASL12 (11751679_a_at) / RFU CDKN2B (11736163_a_at) / Fold change /veh CDKN2B (11736163_a_at) / RFU PRF1 (11729649_at) / Fold change /veh PRF1 (11729649_at) / RFU, ZNF638 /// ZNF638-IT1 / Fold change vs veh, ZNF638 /// ZNF638-IT1 / RFU, PANK3 / Fold change vs veh, PANK3 / RFU, SH3YL1 / Fold change vs veh, SH3YL1 / RFU, ZEB2 / Fold change vs veh, ZEB2 / RFU, NRIP1 / Fold change vs veh, NRIP1 / RFU, PTTG1IP / Fold change vs veh, PTTG1IP / RFU, CAPN2 / Fold change vs veh, CAPN2 / RFU, MED14 / Fold change vs veh, MED14 / RFU, SNORA58 / Fold change vs veh, SNORA58 / RFU, C1orf63 / Fold change vs veh, C1orf63 / RFU, LRRFIP1 / Fold change vs veh, LRRFIP1 / RFU, NDUFAF7 / Fold change vs veh, NDUFAF7 / RFU, SLC12A2 / Fold change vs veh, SLC12A2 / RFU, IBTK / Fold change vs veh, IBTK / RFU, ESF1 / Fold change vs veh, ESF1 / Fold change vs veh, TMEM50B / RFU, TAOK1 / Fold change vs veh, TAOK1 / RFU, ACBD3 / Fold change vs veh, ACBD3 / RFU, TMA16 / Fold change vs veh, TMA16 / RFU, RWDD3 / Fold change vs veh, RWDD3 / RFU, BCAT1 / Fold change vs veh, BCAT1 / RFU, EDEM3 / Fold change vs veh, EDEM3 / RFU, TMEM33 / Fold change vs veh, TMEM33 / RFU, WDR75 / Fold change vs veh, WDR75 / RFU, AHCTF1 / Fold change vs veh, AHCTF1 / RFU, TFRC / Fold change vs veh, TFRC / RFU, ZDHHC17 / Fold change vs veh, ZDHHC17 / RFU, NOM1 / Fold change vs veh, NOM1 / RFU, ARL8B / Fold change vs veh, ARL8B / RFU, ZBTB11 / Fold change vs veh, ZBTB11 / RFU, TAMM41 / Fold change vs veh, TAMM41 / RFU, KIAA1704 /// LOC100996395 / Fold change vs veh, KIAA1704 /// LOC100996395 / RFU, ING1 / Fold change vs veh, ING1 / RFU, TRMT61B / Fold change vs veh, TRMT61B / RFU, FUBP3 / Fold change vs veh, FUBP3 / RFU, TP53 / Fold change vs veh, TP53 / RFU, TNKS2 / Fold change vs veh, TNKS2 / RFU, ZFP14 / Fold change vs veh, ZFP14 / RFU, ACTR2 / Fold change vs veh, ACTR2 / RFU, PPP3R1 / Fold change vs veh, PPP3R1 / RFU, PIK3R1 / Fold change vs veh, PIK3R1 / RFU, HNRNPA1 / Fold change vs veh, HNRNPA1 / RFU, RNF170 / Fold change vs veh, RNF170 / RFU, ZNF28 / Fold change vs veh, ZNF28 / RFU, RNGTT / Fold change vs veh, RNGTT / RFU, OGT / Fold change vs veh, OGT / RFU, BRD1 / Fold change vs veh, BRD1 / RFU, MARS / Fold change vs veh, MARS / RFU, ZNF655 / Fold change vs veh, ZNF655 / RFU, FAHD1 / Fold change vs veh, FAHD1 / RFU, BDP1 / Fold change vs veh, BDP1 / RFU, LRRCC1 / Fold change vs veh, LRRCC1 / RFU, ARID1A / Fold change vs veh, ARID1A / RFU, ZNF146 / Fold change vs veh, ZNF146 / RFU, ZNF330 / Fold change vs veh, ZNF330 / RFU, GPN3 / Fold change vs veh, GPN3 / RFU, C9orf123 / Fold change vs veh, C9orf123 / RFU, N4BP2L2 / Fold change vs veh, N4BP2L2 / RFU, ARFIP1 / Fold change vs veh, ARFIP1 / RFU, FAM179B / Fold change vs veh, FAM179B / RFU, BCL10 / Fold change vs veh, BCL10 / RFU, UHRF1BP1L / Fold change vs veh, UHRF1BP1L / RFU, BET1 / Fold change vs veh, BET1 / RFU, CNOT2 / Fold change vs veh, CNOT2 / RFU, ZNF268 / Fold change vs veh, ZNF268 / Fold change vs veh, ZNF507 / RFU, DGCR2 / Fold change vs veh, DGCR2 / RFU, WDSUB1 / Fold change vs veh, WDSUB1 / Fold change vs veh, HSP90B1 /// MIR3652 / RFU, ADSS / Fold change vs veh, ADSS / RFU, GK / Fold change vs veh, GK / RFU, ZNF148 / Fold change vs veh, ZNF148 / RFU, TAF9 / Fold change vs veh, TAF9 / RFU, SLC1A5 / Fold change vs veh, SLC1A5 / RFU, SLMO2 / Fold change vs veh, SLMO2 / RFU, ABCC4 / Fold change vs veh, ABCC4 / RFU, LOC101060439 /// RAP1B / Fold change vs veh, LOC101060439 /// RAP1B / RFU, RFX7 / Fold change vs veh, RFX7 / RFU, GTPBP10 / Fold change vs veh, GTPBP10 / RFU, CNEP1R1 / Fold change vs veh, CNEP1R1 / RFU, BIVM-ERCC5 /// ERCC5 / Fold change vs veh, BIVM-ERCC5 /// ERCC5 / RFU, ILF3 / Fold change vs veh, ILF3 / RFU 11762660_at / Fold change /veh 11762660_at / RFU VCAN (11757783_s_at) / Fold change /veh VCAN (11757783_s_at) / RFU DDX43 (11728927_at) / Fold change /veh DDX43 (11728927_at) / RFU KRT8 (11758188_x_at) / Fold change /veh KRT8 (11758188_x_at) / RFU NKD1 (11759106_at) / Fold change /veh NKD1 (11759106_at) / RFU SRD5A1 (11742802_a_at) / Fold change /veh SRD5A1 (11742802_a_at) / RFU TPSAB1 /// TPSB2 (11721975_s_at) / Fold change /veh TPSAB1 /// TPSB2 (11721975_s_at) / RFU GSTM3 (11746129_a_at) / Fold change /veh GSTM3 (11746129_a_at) / RFU IL23R (11737362_x_at) / Fold change /veh IL23R (11737362_x_at) / RFU TMEM51 (11727254_a_at) / Fold change /veh TMEM51 (11727254_a_at) / RFU PIWIL2 (11732686_x_at) / Fold change /veh PIWIL2 (11732686_x_at) / RFU ORM1 (11744905_x_at) / Fold change /veh ORM1 (11744905_x_at) / RFU CCDC152 (11743942_at) / Fold change /veh CCDC152 (11743942_at) / RFU ECM1 (11717891_a_at) / Fold change /veh ECM1 (11717891_a_at) / RFU IL23R (11748794_a_at) / Fold change /veh IL23R (11748794_a_at) / RFU TNFAIP8L3 (11732012_x_at) / Fold change /veh TNFAIP8L3 (11732012_x_at) / RFU MBOAT4 (11741988_at) / Fold change /veh MBOAT4 (11741988_at) / RFU 11764193_at / Fold change /veh 11764193_at / RFU TMEM53 (11763286_at) / Fold change /veh TMEM53 (11763286_at) / RFU MAGEB2 (11727129_at) / Fold change /veh MAGEB2 (11727129_at) / RFU TMEM200A (11744735_a_at) / Fold change /veh TMEM200A (11744735_a_at) / RFU CCDC152 (11751479_a_at) / Fold change /veh CCDC152 (11751479_a_at) / RFU FAM211A (11726209_a_at) / Fold change /veh FAM211A (11726209_a_at) / RFU RGS16 (11746705_a_at) / Fold change /veh RGS16 (11746705_a_at) / RFU VCAN (11755009_s_at) / Fold change /veh VCAN (11755009_s_at) / RFU RHOB (11743442_s_at) / Fold change /veh RHOB (11743442_s_at) / RFU RGS16 (11720943_a_at) / Fold change /veh RGS16 (11720943_a_at) / RFU RGS16 (11720944_at) / Fold change /veh RGS16 (11720944_at) / RFU, VPS4B / Fold change vs veh, VPS4B / RFU, CREB1 / Fold change vs veh, CREB1 / RFU, DNAJC13 / Fold change vs veh, DNAJC13 / RFU, GNAQ / Fold change vs veh, GNAQ / RFU, CDK5R1 / Fold change vs veh, CDK5R1 / RFU, ZRANB3 / Fold change vs veh, ZRANB3 / RFU, CUL4A / Fold change vs veh, CUL4A / RFU, CCNY / Fold change vs veh, CCNY / RFU, UFL1 / Fold change vs veh, UFL1 / RFU, COG3 / Fold change vs veh, COG3 / RFU, DIAPH2 / Fold change vs veh, DIAPH2 / RFU, SKA2 / Fold change vs veh, SKA2 / RFU, AFF3 / Fold change vs veh, AFF3 / RFU, LMF1 / Fold change vs veh, LMF1 / RFU, IPO11 / Fold change vs veh, IPO11 / RFU, DFFB / Fold change vs veh, DFFB / RFU, FOXP1 / Fold change vs veh, FOXP1 / RFU, CARD8 / Fold change vs veh, CARD8 / RFU, STRN3 / Fold change vs veh, STRN3 / RFU, ADK / Fold change vs veh, ADK / RFU, RASSF2 / Fold change vs veh, RASSF2 / RFU, WIPF1 / Fold change vs veh, WIPF1 / RFU, LARP1B / Fold change vs veh, LARP1B / RFU, RASA1 / Fold change vs veh, RASA1 / RFU, RB1 / Fold change vs veh, RB1 / RFU, PPFIA1 / Fold change vs veh, PPFIA1 / RFU, MAT2A / Fold change vs veh, MAT2A / RFU, CCT5 / Fold change vs veh, CCT5 / RFU, WDR92 / Fold change vs veh, WDR92 / RFU, CUX1 / Fold change vs veh, CUX1 / RFU, TTC7A / Fold change vs veh, TTC7A / RFU, TMEM135 / Fold change vs veh, TMEM135 / RFU, DEPTOR / Fold change vs veh, DEPTOR / RFU, CPM / Fold change vs veh, CPM / RFU, DNAJB6 / Fold change vs veh, DNAJB6 / RFU, CACNA2D3 / Fold change vs veh, CACNA2D3 / RFU, DTX4 / Fold change vs veh, DTX4 / RFU, TFCP2 / Fold change vs veh, TFCP2 / RFU, GMCL1 /// GMCL1P1 / Fold change vs veh, GMCL1 /// GMCL1P1 / RFU, AEBP2 / Fold change vs veh, AEBP2 / RFU, SNHG1 /// SNORD22 /// SNORD25 /// SNORD26 /// SNORD27 /// SNORD28 /// SNORD29 /// SNORD31 / Fold change vs veh, SNHG1 /// SNORD22 /// SNORD25 /// SNORD26 /// SNORD27 /// SNORD28 /// SNORD29 /// SNORD31 / Fold change (Aza/veh), C12orf56 (ProbeSet 11735607_a_at) / Fold change (ACY-1035/veh), C12orf56 (ProbeSet 11735607_a_at) / Fold change (Aza/veh), FGFR1OP (ProbeSet 11751329_s_at) / Fold change (ACY-1035/veh), FGFR1OP (ProbeSet 11751329_s_at) / Fold change (Aza/veh), VPS36 (ProbeSet 11739960_a_at) / Fold change (ACY-1035/veh), VPS36 (ProbeSet 11739960_a_at) / RFU SYPL1 (11715823_x_at) / Fold change /veh SYPL1 (11715823_x_at) / RFU IGFBP7 (11715501_s_at) / Fold change /veh IGFBP7 (11715501_s_at) / RFU REEP3 (11722064_at) / Fold change /veh REEP3 (11722064_at) / RFU IGLL1 (11728026_x_at) / Fold change /veh IGLL1 (11728026_x_at): dose or concentration left out as unconfirmed. Format: cell-based, human. To be noted: MV-4-11 cells, 48 hours.

Consider `Nc1ncn([C@@H]2O[C@H](CO)[C@@H](O)[C@H]2O)c(=O)n1` [azacitidine], for which the “RFU LRRC4B (11730491_at)” value was 28.29 RFU.
